Assay results as given in ChEMBL document CHEMBL2346556, “Synthesis, receptor binding and activity of iso and azakainoids” (Bioorg Med Chem Lett, 2013).
The source made the active and inactive calls. The rule behind the calls is not given here.

What was measured:
[1] = system: Aplysia californica; experiment: Agonist activity at glutamate receptor in Aplysia californica buccal S cluster neurons assessed as membrane depolarization at 1 mM by patch clamp technique
[2] = species: Rattus norvegicus; experiment: Displacement of [3H]NMDA from rat brain unspecified glutamate receptor by competitive binding assay
[3] = system: Aplysia californica; experiment: Agonist activity at glutamate receptor in Aplysia californica buccal S cluster neurons assessed as receptor non-desensitization at 30 mV holding potential at 1 mM by patch clamp technique
[4] = (§1) Displacement of [3H]glutamic acid from rat brain unspecified glutamate receptor by competitive binding assay
[5] = species: Rattus norvegicus; experiment: Displacement of [3H]kainic acid from rat brain unspecified glutamate receptor by competitive binding assay
[6] = species: Rattus norvegicus; experiment: Displacement of [3H]AMPA from rat brain unspecified glutamate receptor by competitive binding assay
[7] = species: Rattus norvegicus; experiment: as §1

Row | Structure (SMILES) | Activity [1] | Activity [2] | Activity [3] | EC50 [4] [µM] | Activity [5] | Activity [6] | Activity [7]
1 | O=C(O)C[C@H]1CNN[C@@H]1C(=O)O (relative stereo) | Active | inactive | Active | 12 | inactive | inactive | 
2 | O=C(O)C[C@H]1CCN[C@@H]1C(=O)O (relative stereo) |  | inactive |  |  | inactive | inactive | inactive
3 | O=C(O)C[C@H]1CNC[C@@H]1C(=O)O (relative stereo) |  | inactive |  |  | inactive | inactive | inactive
